Reference: patent US20260184707A1, “PHARMACEUTICAL COMPOUNDS FOR THE TREATMENT OF COMPLEMENT MEDIATED DISORDERS” (ALEXION PHARMACEUTICALS, INC., priority 2022, published 2026)

Biological target: T1, Human complement C1s enzyme (Homo sapiens, UniProt P09871)
T1 construct: purified from human serum, Complement Technology, Inc; purchased Complement Technology, Inc; host or cells: human serum (plasma-derived native protein)
T1 sequence (P09871 438-688 limits assumed): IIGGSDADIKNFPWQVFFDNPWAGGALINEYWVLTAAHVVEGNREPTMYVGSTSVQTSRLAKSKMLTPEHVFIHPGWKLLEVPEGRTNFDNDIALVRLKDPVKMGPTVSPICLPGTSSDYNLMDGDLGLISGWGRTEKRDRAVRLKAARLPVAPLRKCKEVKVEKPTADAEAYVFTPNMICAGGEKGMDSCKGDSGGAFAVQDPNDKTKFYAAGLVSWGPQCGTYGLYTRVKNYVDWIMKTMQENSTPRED
T1 sequence (P09871 16-437 partner limits assumed): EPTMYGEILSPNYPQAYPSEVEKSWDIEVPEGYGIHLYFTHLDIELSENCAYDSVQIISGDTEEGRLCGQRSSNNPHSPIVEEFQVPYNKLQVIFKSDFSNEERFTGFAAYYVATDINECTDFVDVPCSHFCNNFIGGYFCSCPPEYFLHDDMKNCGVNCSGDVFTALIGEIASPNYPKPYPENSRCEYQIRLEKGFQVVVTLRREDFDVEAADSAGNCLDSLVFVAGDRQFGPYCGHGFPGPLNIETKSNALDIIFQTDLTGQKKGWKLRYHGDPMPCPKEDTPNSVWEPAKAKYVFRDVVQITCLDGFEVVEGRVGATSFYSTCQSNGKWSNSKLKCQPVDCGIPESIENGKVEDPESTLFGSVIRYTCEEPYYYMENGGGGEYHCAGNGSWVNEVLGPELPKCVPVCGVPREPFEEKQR
Test: Human C1s enzyme assay
Type: biochemical
Conditions: human complement C1s enzyme 1.16 nM, substrate Z-L-Lys-SBzl, A405; read-out: IC50 (Stars)
In short: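 Thioesterase activity followed colorimetrically (DTNB, A405, 30-s reads) using 100 μM Z-L-Lys-SBzl substrate. Enzyme, human serum-derived C1s at 1.16 nM final, was incubated with test compound for 5 min, room temperature, pH 7.5 Tris buffer with 1 M NaCl. Rate-versus-concentration data fitted by nonlinear regression for IC50.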

IC50 [nM]	Structure (SMILES)
< 100	COc1cccc(-c2nc(C(=O)Nc3cnc(-c4ccccc4)n(CC(=O)NCc4cc5cnccc5[nH]4)c3=O)co2)c1 [Compound 211, N-(1-(2-(((1H-pyrrolo[3,2-c]pyridine-2-yl)methyl)amino)-2-oxoethyl)-6-oxo-2-phenyl-1,6-dihydropyrimidin-5-yl)-2-(3-methoxyphenyl)oxazole-4-carboxamide]
< 100	C[C@H](Nc1nccn(CC(=O)NCc2cc3cnccc3[nH]2)c1=O)c1ccc2oc3ccccc3c2c1 [Compound 299, (S)—N-((1H-pyrrolo[3,2-c]pyridine-2-yl)methyl)-2-(3-((1-(dibenzo[b,d]furan-2-yl)ethyl)amino)-2-oxopyrazin-1(2H)-yl)acetamide]
> 1000	O=C(Cn1c(-c2ccccc2)ncc(-c2nc3c(s2)CCCC3)c1=O)NCc1cc2cnccc2[nH]1 [Compound 30, N-((1H-pyrrolo[3,2-c]pyridin-2-yl)methyl)-2-(6-oxo-2-phenyl-5-(4,5,6,7-tetrahydrobenzo[d]thiazol-2-yl)pyrimidin-1(6H)-yl)acetamide]
< 100	CC(C)c1cnc(N[C@H](C)c2ccc3oc4ccccc4c3c2)c(=O)n1CC(=O)NCc1cc2cnccc2[nH]1 [Compound 442, (R)-N-((1H-pyrrolo[3,2-c]pyridin-2-yl)methyl)-2-(3-((1-(dibenzo[b,d]furan-2-yl)ethyl)-amino)-6-isopropyl-2-oxopyr-azin-1(2H)-yl)acetamide]
< 100	C[C@@H](Nc1cnc(-c2ccc(OCCOCCOCCN)cc2)n(CC(=O)NCc2cc3cnccc3[nH]2)c1=O)c1ccc2oc3ccccc3c2c1 [Compound 452, (R)-N-((1H-pyrrolo[3,2-c]pyridin-2-yl)methyl)-2-(2-(4-(2-(2-(2-aminoethoxy)ethoxy)-ethoxy)phenyl)-5-((1-(dibenzo [b,d]furan-2-yl)ethyl)amino)-6-oxopyrimidin-1(6H)-yl)-acetamide]
> 1000	C[C@@H](Nc1cnc(N2CC(F)C2)n(CC(=O)NCc2cc3cnccc3[nH]2)c1=O)c1ccc2oc3ccccc3c2c1 [Compound 368, (R)-N-((1H-pyrrolo[3,2-c]pyridin-2-yl)methyl)-2-(5-((1-(dibenzo[b,d]furan-2-yl)ethyl)-amino)-2-(3-fluoroazetidin-1-yl)-6-oxopyrimidin-1(6H)-yl)-acetamide]
< 100	C[C@@H](Nc1cnc(N2CCCCC2)n(CC(=O)NCc2cc3cnccc3[nH]2)c1=O)c1cnc(-c2ccccc2)s1 [Compound 462, (R)-N-((1H-pyrrolo[3,2-c]pyridin-2-yl)methyl)-2-(6-oxo-5-((1-(2-phenylthiazol-5-yl)ethyl)amino)-2-(piperidin-1-yl)pyrimidin-1(6H)-yl)acet-amide]
< 100	C[C@@H](Nc1ncc(-c2cscn2)n(CC(=O)NCc2cc3cnccc3[nH]2)c1=O)c1ccc(-c2ccccc2F)cc1 [Compound 432, (R)-N-((1H-pyrrolo[3,2-c]pyridin-2-yl)methyl)-2-(3-((1-(2′-fluoro-[1,1′-biphenyl]-4-yl)ethyl)amino)-2-oxo-6-(thiazol-4-yl)pyrazin-1(2H)-yl)acetamide]
< 100	O=C(Cn1c(-c2ccccc2F)ncc(NC2(c3ccc4oc5ccccc5c4c3)CC2)c1=O)NCc1cc2cnccc2[nH]1 [Compound 403, N-((1H-pyrrolo[3,2-c]pyridine-2-yl)methyl)-2-(5-((1-(dibenzo[b,d]furan-2-yl)cyclopropyl)amino)-2-(2-fluorophenyl)-6-oxopyrimidin-1(6H)-yl)acetamide]
< 100	O=C(Cn1c(N2CCOCC2)ncc(NC(=O)c2csc(-c3ccccc3)n2)c1=O)NCc1cc2cnccc2[nH]1 [Compound 411, N-(1-(2-(((1H-pyrrolo[3,2-c]pyridin-2-yl)methyl)amino)-2-oxoethyl)-2-morpholino-6-oxo-1,6-dihydropyrimidin-5-yl)-2-phenylthiazole-4-carbox-amide]
< 100	CS(=O)(=O)c1ccc(-c2ncc(NCCCc3ccccc3)c(=O)n2CC(=O)NCc2cc3cnccc3[nH]2)cc1 [Compound 69, N-((1H-pyrrolo[3,2-c]pyridine-2-yl)methyl)-2-(2-(4-(methylsulfonyl)phenyl)-6-oxo-5-((3-phenylpropyl)amino)pyrimidin-1(6H)-yl)acetamide]
< 100	O=C(Cn1c(N2CCCCC2)cnc(NCc2nnc(-c3ccccc3)s2)c1=O)NCc1cc2cnccc2[nH]1 [Compound 472, N-((1H-pyrrolo[3,2-c]pyridin-2-yl)methyl)-2-(2-oxo-3-(((5-phenyl-1,3,4-thiadiazol-2-yl)-methyl)amino)-6-(piperidin-1-yl)pyrazin-1(2H)-yl)acetamide]
< 100	C[C@H](Nc1cncn(CC(=O)NCc2cc3cnccc3[nH]2)c1=O)c1ccc2oc3ccccc3c2c1 [Compound 265, (S)—N-((1H-pyrrolo[3,2-c]pyridine-2-yl)methyl)-2-(5-((1-(dibenzo[b,d]furan-2-yl)ethyl)amino)-6-oxopyrimidin-1(6H)-yl)acetamide]
> 1000	O=C(Cn1c(-c2ccccc2)ncc(NC(=O)c2cc3ccc2CCc2ccc(cc2)CC3)c1=O)NCc1cc2cnccc2[nH]1 [Compound 83, N-(1-(2-(((1H-pyrrolo[3,2-c]pyridine-2-yl)methyl)amino)-2-oxoethyl)-6-oxo-2-phenyl-1,6-dihydropyrimidin-5-yl)-1,4(1,4)-dibenzenacyclohexaphane-1^2-carboxamide]
< 100	O=C(Cn1c(N2CCCCC2)ncc(NC(CF)c2ccc3oc4ccccc4c3c2)c1=O)NCc1cc2cnccc2[nH]1 (single isomer, unassigned) [Compound 441]
< 100	CS(=N)(=O)c1ccc(-c2ncc(NCCCc3ccccc3)c(=O)n2CC(=O)NCc2cc3cnccc3[nH]2)cc1 (stereo not drawn) [Compound 200, N-((1H-pyrrolo[3,2-c]pyridine-2-yl)methyl)-2-(2-(4-(S-methylsulfonimidoyl)phenyl)-6-oxo-5-((3-phenylpropyl)amino)pyrimidin-1(6H)-yl)acetamide]
< 100	O=C(Cn1c(-c2ccc(F)cc2)ncc(NCc2ccc3oc4ccccc4c3c2)c1=O)NCc1cc2cnccc2[nH]1 [Compound 123, N-((1H-pyrrolo[3,2-c]pyridine-2-yl)methyl)-2-(5-((dibenzo[b,d]furan-2-ylmethyl)amino)-2-(4-fluorophenyl)-6-oxopyrimidin-1(6H)-yl)acetamide]
> 1000	C[C@@H](Nc1cnc(N2CCCC2)n(CC(=O)NCc2cc3cnccc3[nH]2)c1=O)c1ccc2oc3ccccc3c2c1 [Compound 367, (R)—N-((1H-pyrrolo[3,2-c]pyridin-2-yl)methyl)-2-(5-((1-(dibenzo[b,d]furan-2-yl)ethyl)amino)-6-oxo-2-(pyrrolidin-1-yl)pyrimidin-1(6H)-yl)acetamide]
> 1000	O=C(Cn1c(N2CCCCC2)cnc(N[C@H](CF)c2ccc3oc4ccccc4c3c2)c1=O)NCc1cc2cnccc2[nH]1 [Compound 494, (S)-N-((1H-pyrrolo[3,2-c]pyridin-2-yl)methyl)-2-(3-((1-(dibenzo[b,d]furan-2-yl)-2-fluoroethyl)amino)-2-oxo-6-(piperidin-1-yl)pyrazin-1(2H)-yl)acetamide]
< 100	COc1ccccc1-c1ccc(C(=O)Nc2cnc(-c3ccccc3)n(CC(=O)NCc3cc4cnccc4[nH]3)c2=O)cc1 [Compound 213, N-(1-(2-(((1H-pyrrolo[3,2-c]pyridin-2-yl)methyl)amino)-2-oxoethyl)-6-oxo-2-phenyl-1,6-dihydropyrimidin-5-yl)-2′-methoxy-[1,1′-biphenyl]-4-carboxamide]
< 100	O=C(Cn1c(-c2ccccc2)ncc(NC(=O)c2ccc3c(c2)oc2ccccc23)c1=O)NCc1cc2cnccc2[nH]1 [Compound 203, N-(1-(2-(((1H-pyrrolo[3,2-c]pyridin-2-yl)methyl)amino)-2-oxoethyl)-6-oxo-2-phenyl-1,6-dihydropyrimidin-5-yl)dibenzo [b,d]furan-3-carboxamide]
< 100	O=C(Cn1c(-c2ccccc2)ncc(NCc2ccc3sc4ccccc4c3c2)c1=O)NCc1cc2cnccc2[nH]1 [Compound 259, N-((1H-pyrrolo[3,2-c]pyridin-2-yl)methyl)-2-(5-((dibenzo [b,d]thiophen-2-ylmethyl)-amino)-6-oxo-2-phenylpyrimi-din-1(6H)-yl)acetamide]
< 100	O=C(Cn1c(-c2ccccc2)ncc(NC(=O)c2cccc(-c3ccccc3)c2)c1=O)NCc1cc2cnccc2[nH]1 [Compound 165, N-(1-(2-(((1H-pyrrolo[3,2-c]pyridin-2-yl)methyl)amino)-2-oxoethyl)-6-oxo-2-phenyl-1,6-dihydropyrimidin-5-yl)-[1,1′-biphenyl]-3-carboxamide]
< 100	O=C(Cn1cncc(NC(=O)c2coc(-c3ccccc3)n2)c1=O)NCc1cc2cnccc2[nH]1 [Compound 392, N-(1-(2-(((1H-pyrrolo[3,2-c]pyridin-2-yl)methyl)amino)-2-oxoethyl)-6-oxo-1,6-dihydro-pyrimidin-5-yl)-2-phenyl-oxazole-4-carboxamide]
